Data on two molecules can be found in patent US20250275968A1, “INHIBITORS OF TAU PROTEINS” (DEUTSCHES ZENTRUM FÜR NEURODEGENERATIVE ERKRANKUNGEN E.V., priority 2022, published 2025).

Series [1] deals with 2N4R tau. The series is described as follows: In vitro seeded aggregation/fibrillization assay of 2N4R tau (ThT fluorescence). It counts as biochemical. Conditions: tau:compound mole ratios 1:3 and 1:10. The procedure: Aggregation of 2N4R Tau was performed using a previously published co-factor-free aggregation protocol, with a few modifications (Reference: Chakraborty, P. et al. Co-factor-free aggregation of tau into seeding-competent RNA-sequestering amyloid fibrils. Nat. Commun. 12, 4231 (2021)). Aggregation experiments used the Tau protein stock prepared in 25 mM HEPES pH 7.4, 1 mM TCEP. Stocks of compounds were prepared in aggregation buffer (25 mM HEPES, 10 mM KCl, 5 mM MgCl2, pH 7.2) or in DMSO (10 mM compound).
To prepare the Tau fibril seeds by de novo aggregation, 2N4R Tau at a monomer concentration of 25 μM was diluted in aggregation buffer. The working concentration of TCEP in the aggregation mixture was <25 μM after dilution of the stock. To this mixture, Thioflavin T (ThT) was added to a final concentration of 50 μM. A total volume of 100 μL of the Tau-ThT mixture was incubated in a well of a 96-well microplate (Greiner Bio-one), in the presence of two polytetrafluoroethylene beads. The microplate was subjected to a program implemented in a Tecan Spark plate reader that involved incubating at 37° C., with intervals of double orbital shaking and ThT fluorescence emission measurement. The excitation wavelength for ThT was set as 430 nm and the emission wavelength was 485 nm. Details of this plate reader program were published previously (Reference: Chakraborty, P. et al. Co-factor-free aggregation of tau into seeding-competent RNA-sequestering amyloid fibrils. Nat. Commun. 12, 4231 (2021)). […] The fibril-containing mixture collected from the microplate served as a seeding mixture for the subsequent aggregation assays.
Seeded aggregation assays were performed as described above but with 1.0% of the well volume occupied by the seeding mixture sonicated for 1 minute. The assays were performed in the presence and absence of compounds, and working concentrations ranged from 0-250 μM compound.
Analyses of the fluorescence curves were performed using Graphpad PRISM version 8. Fluorescence data were fit to a sigmoid function. The number of hours corresponding to half-maximal ThT Fluorescence™ as well as the span of fluorescence intensity (Span) were determined for each sigmoid curve. Statistically significant differences were determined by one-way ANOVA analysis with Dunnett's multiple comparison test or unpaired t-test.

Series [2] concerns 3R tau (tau^3R). Put plainly: In vitro seeded aggregation assay of 3R tau (ThT fluorescence). Type of series: biochemical. Conditions: mole ratios 1:3 and 1:10. The procedure: (§1) Seeded aggregation assays were performed as described above but with 1.0% of the well volume occupied by the seeding mixture sonicated for 1 minute. The assays were performed in the presence and absence of compounds, and working concentrations ranged from 0-250 μM compound. Analyses of the fluorescence curves were performed using Graphpad PRISM version 8. Fluorescence data were fit to a sigmoid function. The number of hours corresponding to half-maximal ThT FluorescenceTM as well as the span of fluorescence intensity (Span) were determined for each sigmoid curve. Statistically significant differences were determined by one-way ANOVA analysis with Dunnett's multiple comparison test or unpaired t-test. The described seeded aggregation protocol was likewise applied to 3R Tau and the […]/[…] mutant of 2N4R Tau.

The target in series [3] is 2N4R tau^C291S,C322S (Homo sapiens, UniProt P10636, C608S/C639S). The series is described as follows: In vitro seeded aggregation assay of cysteine-free tau mutant (ThT fluorescence). It counts as biochemical. Conditions: mole ratios 1:3 and 1:10. The protocol: as §1
For series [4], the target named is T1, Full-length 2N4R tau (Homo sapiens, UniProt P10636).
T1 construct: Full-length 2N4R tau was incubated with Osimertinib mesylate
Put plainly: MS/MS analysis of compound adduct in tau. Type of series: binding. Conditions: 1:5 mole ratio tau:compound, overnight at 37° C. The procedure:
Compounds (330 μM) were incubated with 2N4R Tau (65 μM) in buffer (25 mM HEPES, 10 mM KCl, 5 mM MgCl2, pH 7.2) for 16 h at 37° C. then stored at 4° C. until in-gel digestion.
In-gel digestion using trypsin (Sigma Aldrich) followed by extraction of peptides for mass spectrometry were performed as described previously (Reference: Shevchenko, A., Tomas, H., Havlis, J., Olsen, J. V., and Mann, M. (2006). In-gel digestion for mass spectrometric characterization of proteins and proteomes. Nature protocols 1, 2856-2860). Extracted peptides were resuspended in 2% acetonitrile and 0.05% TFA and analyzed using a Orbitrap Exploris 480 Mass Spectrometer (Thermo Fisher). The mass spectrometer used an emitter voltage at […] and ion transfer tube temperature at 300° C. Full scans were recorded in the range 350 to 1600 m/z with a mass resolution of 15000. Peptides were fragmented in the collision cell with a 28% energy setting. Tandem mass spectra were acquired using Scan Range Mode “Define First Mass” and isolation window of 1.6 m/z with a mass resolution of 15000.

Series [5] can be described thus: Solubility in water. It counts as physicochemical. Conditions: without cosolvents or counterions.

SMILES strings stand for the structures. Counter-ions that a name gives are not always drawn.

T1 sequence (P10636 1-441 isoform P10636-8): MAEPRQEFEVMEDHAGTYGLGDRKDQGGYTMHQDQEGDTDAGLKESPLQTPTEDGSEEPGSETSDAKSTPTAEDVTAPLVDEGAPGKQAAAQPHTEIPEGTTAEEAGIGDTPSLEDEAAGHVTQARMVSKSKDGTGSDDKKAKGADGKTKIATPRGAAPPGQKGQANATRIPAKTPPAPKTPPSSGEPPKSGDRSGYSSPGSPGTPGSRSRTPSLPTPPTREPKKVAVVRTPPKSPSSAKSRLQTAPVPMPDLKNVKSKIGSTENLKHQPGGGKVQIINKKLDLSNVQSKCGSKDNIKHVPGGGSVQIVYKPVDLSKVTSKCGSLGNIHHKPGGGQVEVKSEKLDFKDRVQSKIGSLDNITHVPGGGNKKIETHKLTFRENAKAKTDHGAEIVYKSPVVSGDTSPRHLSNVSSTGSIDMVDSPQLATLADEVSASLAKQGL
2N4R tau^C291S,C322S, sequence (P10636 1-441 isoform P10636-8 C291S/C322S): as the sequence (P10636 1-441 isoform P10636-8) above, with C291S, C322S counted along it

As for `C=CC(=O)Nc1cc(Nc2nccc(-c3cn(C)c4ccccc34)n2)c(OC)cc1N(C)CCN(C)C` [Osimertinib mesylate, N-[2-(2-Dimethylaminoethylmethylamino)-4-methoxy-5-[[4-(1-methylindol-3-yl)pyrimidin-2-yl]amino]phenyl]prop-2-enamide Mesylate Salt], in series [1], the “inhibition of aggregation of tau^wt and tau^3R compared with cysteine-free tau^C291S,C322S” value is “more effectively inhibits”. For the same molecule, in series [2], the “normalized Span of ThT fluorescence” value was “statistically lower normalized Span values” and the “normalized Tm (midpoint of aggregation curve)” value is reported as “do not show a clear dose-dependence”. Besides, in series [3], the “normalized Span of ThT fluorescence” value was “not observed” and the “normalized Tm (midpoint of aggregation curve)” value is “do not show a clear dose-dependence”. In addition, the “tau peptide spectrum matches showing compound-modified cysteine sites” value in series [4] is on record as “about 350”. The “covalent modification of C291 and C322 (peptide mass spectra, LC-MS/MS)” value in series [4] (tryptic digestion) was “confirm covalent modification of cysteines in tau”.

`C=CC(=O)Nc1cc(Nc2nccc(-c3cn(C)c4ccccc34)n2)c(OC)cc1N(C)CCN(C)C` [Osimertinib, N-[2-(2-Dimethylaminoethylmethylamino)-4-methoxy-5-[[4-(1-methylindol-3-yl)pyrimidin-2-yl]amino]phenyl]prop-2-enamide]: the solubility in water entry in series [5] was “poor solubility in water”.
